Earlier results in patent US20130210861A1, “METHODS AND COMPOSITIONS FOR MANAGING CARDIOVASCULAR DISEASE ASSOCIATED WITH CHRONIC KIDNEY DISEASE” (priority 2011, published 2013).
Like-named read-outs stand apart in the source and are kept apart here.

Key:
[1] = Latin American cohort
[2] = HCQ use
[3] = Lumina cohort, southern US
[4] = tested on: matrix metallo proteinase-9 (MMP-9); settings: SLE patients
[5] = multiple rheumatological cohorts with CVD
[6] = patients with inflammatory disorders
[7] = not given; remark: listed apart in the source

SMILES | OR for death [1] | OR for metabolic syndrome [2] | OR for vascular events [2] | OR for death [3] | MMP-9 secretion [4] | OR for death [5] | atheroprotection (APO E -/- mice) | fasting glucose [6] | absorption (200 mg tablet) | elimination half-life (200 mg tablet (155 mg of base)) [days] | plasma protein binding (in vivo) | cardiovascular deaths in patients using HCQ ([7]; 232 patients, 52-month study period, 7 deaths in those never exposed to HCQ) | HR for death from any cause ([7]; Spanish trial cohort, HCQ use)
CCN(CCO)CCCC(C)Nc1ccnc2cc(Cl)ccc12 (centres unmarked) [HCQ, hydroxychloroquine] | 0.62 | 0.13 | 0.3 | 0.31 | inhibited | 0.12-0.49 | significant atheroprotection | lowered | absorbed rapidly and completely | 32 to 50 | moderate | zero | 0.14
CCN(CC)CCCC(C)Nc1ccnc2cc(Cl)ccc12 (centres unmarked) [Chloroquine] | – | – | – | – | – | – | significant atheroprotection activity | – | – | – | – | – | –
